Organism: Rattus norvegicus
Assay: Open TG-GATES - Regimen: Single
Assay type: toxicity, organism-based, Sprague-Dawley
Set-up: regimen Single, gender Male, age 6 weeks
Settings: in vivo, po, 300 mg/kg, route gavage, dose level Middle; for APTT / Bas / Eos / Fbg / Hb / Ht / Lym / MCH / MCHC / MCV / Mono / Neu / PT / Plat / RBC / Ret / WBC: tissue Blood; for KIDNEY_L / KIDNEY_R / KIDNEY_TOTAL: tissue Kidney; for LIVER: tissue Liver; for A/G / ALP / ALT / AST / BUN / CRE / Ca / Cl / DBIL / GLC / IP / K / LDH / Na / PL / RALB / TBIL / TC / TG / TP / gamma-GTP: tissue Plasma

CC(C)(S)[C@@H](N)C(=O)O [PENICILLAMINE]
TERMINAL_BW (3 h): 203.8 g | APTT (3 h): 16.5 s | Bas (3 h): 0% | Eos (3 h): 0.8% | Fbg (3 h): 315.2 mg/dL | Hb (3 h): 13.2 g/dL | Ht (3 h): 40.7% | Lym (3 h): 75.4% | MCH (3 h): 20.9 pg | MCHC (3 h): 32.3% | MCV (3 h): 64.7 fL | Mono (3 h): 3.8% | Neu (3 h): 19.4% | PT (3 h): 15.1 s | Plat (3 h): 123.1 x10_4/uL | RBC (3 h): 629.8 x10_4/ul | Ret (3 h): 9% | WBC (3 h): 73.3 x10_2/uL | KIDNEY_L (3 h): 0.8 g | KIDNEY_R (3 h): 0.9 g | KIDNEY_TOTAL (3 h): 1.7 g | LIVER (3 h): 8.6 g | A/G (3 h): 0.9 | ALP (3 h): 1102.4 IU/L | ALT (3 h): 43.6 IU/L | AST (3 h): 73.4 IU/L | BUN (3 h): 8.4 mg/dL | CRE (3 h): 0.2 mg/dL | Ca (3 h): 10.9 mg/dL | Cl (3 h): 106.2 meq/L | DBIL (3 h): 0.01 mg/dL | GLC (3 h): 175 mg/dL | IP (3 h): 8.4 mg/dL | K (3 h): 4.3 meq/L | LDH (3 h): 57.4 IU/L | Na (3 h): 142.6 meq/L | PL (3 h): 139.2 mg/dL | RALB (3 h): 2.5 g/dL | TBIL (3 h): 0.034 mg/dL | TC (3 h): 73.8 mg/dL | TG (3 h): 87.8 mg/dL | TP (3 h): 5.3 g/dL | gamma-GTP (3 h): 1 IU/L | TERMINAL_BW (6 h): 200.3 g | APTT (6 h): 14.8 s | Bas (6 h): 0% | Eos (6 h): 0.8% | Fbg (6 h): 313.6 mg/dL | Hb (6 h): 13.4 g/dL | Ht (6 h): 41.5% | Lym (6 h): 74.6% | MCH (6 h): 20.4 pg | MCHC (6 h): 32.3% | MCV (6 h): 63.4 fL | Mono (6 h): 3% | Neu (6 h): 20.6% | PT (6 h): 14.6 s | Plat (6 h): 121.5 x10_4/uL | RBC (6 h): 655.4 x10_4/ul | Ret (6 h): 8.7% | WBC (6 h): 87.9 x10_2/uL | KIDNEY_L (6 h): 0.9 g | KIDNEY_R (6 h): 0.9 g | KIDNEY_TOTAL (6 h): 1.8 g | LIVER (6 h): 8.2 g | A/G (6 h): 0.9 | ALP (6 h): 1066.8 IU/L | ALT (6 h): 36.6 IU/L | AST (6 h): 72 IU/L | BUN (6 h): 8.2 mg/dL | CRE (6 h): 0.2 mg/dL | Ca (6 h): 10.7 mg/dL | Cl (6 h): 106.2 meq/L | DBIL (6 h): 0.012 mg/dL | GLC (6 h): 182.8 mg/dL | IP (6 h): 9.5 mg/dL | K (6 h): 4.4 meq/L | LDH (6 h): 60.8 IU/L | Na (6 h): 142.8 meq/L | PL (6 h): 139.6 mg/dL | RALB (6 h): 2.5 g/dL | TBIL (6 h): 0.038 mg/dL | TC (6 h): 79.2 mg/dL | TG (6 h): 47.4 mg/dL | TP (6 h): 5.2 g/dL | gamma-GTP (6 h): 1 IU/L | TERMINAL_BW (9 h): 198.7 g | APTT (9 h): 16.2 s | Bas (9 h): 0% | Eos (9 h): 0.8% | Fbg (9 h): 304.8 mg/dL | Hb (9 h): 13.2 g/dL | Ht (9 h): 40.9% | Lym (9 h): 76.8% | MCH (9 h): 20.8 pg | MCHC (9 h): 32.2% | MCV (9 h): 64.4 fL | Mono (9 h): 3% | Neu (9 h): 18.6% | PT (9 h): 15.2 s | Plat (9 h): 120.8 x10_4/uL | RBC (9 h): 634.2 x10_4/ul | Ret (9 h): 8.9% | WBC (9 h): 73.6 x10_2/uL | KIDNEY_L (9 h): 0.9 g | KIDNEY_R (9 h): 0.9 g | KIDNEY_TOTAL (9 h): 1.7 g | LIVER (9 h): 7.7 g | A/G (9 h): 0.9 | ALP (9 h): 1040.2 IU/L | ALT (9 h): 32.8 IU/L | AST (9 h): 67 IU/L | BUN (9 h): 8 mg/dL | CRE (9 h): 0.2 mg/dL | Ca (9 h): 10.6 mg/dL | Cl (9 h): 107.2 meq/L | DBIL (9 h): 0.01 mg/dL | GLC (9 h): 175.4 mg/dL | IP (9 h): 9.9 mg/dL | K (9 h): 4 meq/L | LDH (9 h): 58 IU/L | Na (9 h): 142.8 meq/L | PL (9 h): 128.8 mg/dL | RALB (9 h): 2.5 g/dL | TBIL (9 h): 0.042 mg/dL | TC (9 h): 73.6 mg/dL | TG (9 h): 39.4 mg/dL | TP (9 h): 5.2 g/dL | gamma-GTP (9 h): 1 IU/L | TERMINAL_BW (24 h): 216.3 g | APTT (24 h): 15.1 s | Bas (24 h): 0.2% | Eos (24 h): 1% | Fbg (24 h): 290.8 mg/dL | Hb (24 h): 13.5 g/dL | Ht (24 h): 41.5% | Lym (24 h): 82.2% | MCH (24 h): 21.1 pg | MCHC (24 h): 32.5% | MCV (24 h): 64.7 fL | Mono (24 h): 3% | Neu (24 h): 12.6% | PT (24 h): 14 s | Plat (24 h): 123.4 x10_4/uL | RBC (24 h): 640.6 x10_4/ul | Ret (24 h): 8.3% | WBC (24 h): 101.5 x10_2/uL | KIDNEY_L (24 h): 0.9 g | KIDNEY_R (24 h): 0.9 g | KIDNEY_TOTAL (24 h): 1.8 g | LIVER (24 h): 10.1 g | A/G (24 h): 0.9 | ALP (24 h): 1515 IU/L | ALT (24 h): 39.2 IU/L | AST (24 h): 65.8 IU/L | BUN (24 h): 13.4 mg/dL | CRE (24 h): 0.2 mg/dL | Ca (24 h): 11.1 mg/dL | Cl (24 h): 105.6 meq/L | DBIL (24 h): 0.012 mg/dL | GLC (24 h): 172.4 mg/dL | IP (24 h): 8.2 mg/dL | K (24 h): 4.1 meq/L | LDH (24 h): 79.4 IU/L | Na (24 h): 144.2 meq/L | PL (24 h): 164.8 mg/dL | RALB (24 h): 2.6 g/dL | TBIL (24 h): 0.028 mg/dL | TC (24 h): 86.6 mg/dL | TG (24 h): 126 mg/dL | TP (24 h): 5.5 g/dL | gamma-GTP (24 h): 1.2 IU/L

From ChEMBL document CHEMBL3885861, “Open TG-GATES”
